In US9238653B2, “Antimalarial agents that are inhibitors of dihydroorotate dehydrogenase” (BOARD OF REGENTS, THE UNIVERSITY OF TEXAS SYSTEM, priority 2009, dated 2016):
Where two headings read alike, the source gives them in different places.

How the values were obtained:
pfDHOD = pfDHOD (Plasmodium falciparum (isolate 3D7), UniProt Q08210); experiment: DHOD enzyme inhibition, colorimetric DCIP reduction or direct orotic acid assay; format: biochemical
Procedure: Reactions are initiated by addition of enzyme to a final concentration in the range of about 5 nM to about 50 nM while maintaining the temperature of a circulating water bath at 25° C.
Assay solutions were prepared as discussed above, except that DCIP is not present and the solution is depleted of oxygen by the inclusion of an oxidase/reductase system, such as, 0.1 mg/ml of glucose oxidase, 0.02 mg/ml catalase and 50 mM glucose. The data obtained was fitted to equation 1, to determine the IC50 values of the representative compounds.

P. falciparum 3D7 = experiment: 3H-hypoxanthine uptake in P. falciparum-infected erythrocytes; format: cell-based, Plasmodium falciparum; conditions: read-out: EC50 P. falciparum 3D7
[1] = Plasmodium falciparum, 3D7, Erythrocyte
[2] = Plasmodium falciparum, 3D7, Erythrocyte, 3D7 strain

Sequence of pfDHOD (Q08210 24-569 limits assumed): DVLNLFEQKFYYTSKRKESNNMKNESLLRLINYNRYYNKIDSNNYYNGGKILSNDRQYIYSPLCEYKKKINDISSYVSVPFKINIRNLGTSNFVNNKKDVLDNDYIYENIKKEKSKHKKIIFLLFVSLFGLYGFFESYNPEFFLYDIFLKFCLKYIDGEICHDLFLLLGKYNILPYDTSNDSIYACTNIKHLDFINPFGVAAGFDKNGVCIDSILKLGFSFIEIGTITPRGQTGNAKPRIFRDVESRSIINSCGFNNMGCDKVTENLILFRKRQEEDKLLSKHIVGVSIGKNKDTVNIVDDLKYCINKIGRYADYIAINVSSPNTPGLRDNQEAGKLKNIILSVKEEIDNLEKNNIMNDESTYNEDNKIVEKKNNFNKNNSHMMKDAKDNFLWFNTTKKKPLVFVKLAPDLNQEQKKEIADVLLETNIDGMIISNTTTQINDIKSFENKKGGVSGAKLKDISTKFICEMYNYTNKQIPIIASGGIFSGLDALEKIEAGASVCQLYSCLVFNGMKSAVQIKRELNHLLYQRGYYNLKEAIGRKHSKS

SMILES	IC50 (pfDHOD) [nM]	EC50 (P. falciparum 3D7; [2]) [nM]	further results
Cc1cc(Nc2ccc(Cl)c(F)c2)n2ncnc2n1			melting point: 285 °C
Cc1cc(NC2Cc3ccc(Br)cc3C2)n2ncnc2n1 (centres unmarked)			melting point: 164 °C
Cc1cc(Nc2ccc(C(F)(F)F)cc2)n2nc(C(F)(F)F)nc2n1			melting point: 124 to 126 °C
Cc1cc(Nc2ccc(S(F)(F)(F)(F)F)cc2)n2nc(C(F)(F)F)nc2n1			melting point: 178 to 180 °C
Cc1cc(NC2CCc3ccccc3C2)n2ncnc2n1 (centres unmarked)	500		EC50 (P. falciparum 3D7; [1]): 1800 nM
Cc1cc(Nc2ccc(C(F)(F)F)cc2)n2ccnc2n1	77	330	
Cc1cc(NC2Cc3ccccc3C2)n2ncnc2n1	500	2400	
Cc1cc(Nc2ccc(Cl)cc2)n2nc(C(F)(F)F)nc2n1	90	260	
Cc1cc(C)cc(Nc2cc(C)nc3nc(C(F)(F)F)nn23)c1	220	700	
CC(C)c1ccc(Nc2c3c(nc4ncnn24)CCC3)cc1	250	1800	
Cc1cc(Nc2ccc(C(F)(F)F)cc2)n2nc(C(C)(F)F)nc2n1	38	7	
CCc1c(C)nc2ncnn2c1Nc1ccc(C(C)C)cc1	1660	> 10000	
CCc1c(C)nc2ncnn2c1Nc1ccc(OC(F)(F)F)cc1		> 10000	
Cc1cc(Nc2ccc(S(F)(F)(F)(F)F)cc2)n2nc(C(C)(F)F)nc2n1			EC50 (P. falciparum 3D7; [1]): 19 nM
Cc1cc(Nc2ccc3sccc3c2)n2ncnc2n1	90	70	
Cc1cc(Nc2ccc(C)c(Cl)c2)n2nc(C(F)(F)F)nc2n1	130	800	
Cc1cc(Nc2cc(F)c(C(F)(F)F)c(F)c2)n2ncnc2n1	190	240	
Cc1cc(Nc2ccc3c(c2)CCCC3)n2nc(C(F)(F)F)nc2n1	43		
COc1nc2nc(C)cc(Nc3cccc(Cl)c3)n2n1		1000	
Cc1cc(NC2Cc3cc(Cl)c(Cl)cc3C2)n2ncnc2n1	1200	> 5000	
Cc1cc(Nc2ccc(S(F)(F)(F)(F)F)cc2)n2ccnc2n1		600	

SMILES	IC50 (pfDHOD) [nM]	EC50 (P. falciparum 3D7; [2]) [nM]	further results
Cc1cc(NC2Cc3cc(F)c(F)cc3C2)n2ncnc2n1	1000	1500	
Cc1cc(Nc2ccc(SC(F)(F)F)cc2)n2ncnc2n1	610	> 4000	
Cc1cc(NC2Cc3ccc(F)cc3C2)n2ncnc2n1 (centres unmarked)	610		EC50 (P. falciparum 3D7; [1]): 1300 nM
COc1cc2c(cc1OC)CC(Nc1cc(C)nc3ncnn13)C2	4620		EC50 (P. falciparum 3D7; [1]): 7700 nM
Cc1cc(Nc2ccc(F)cc2)n2nc(C(F)(F)F)nc2n1	740	8500	
Brc1ccc(Nc2c3c(nc4ncnn24)CCCC3)cc1	2120	9900	
Cc1cc(Nc2ccc(C(C)(C)C)c(F)c2)n2ncnc2n1	60	100	
Cc1cc(NC2CCc3cc(F)ccc3C2)n2ncnc2n1 (centres unmarked)	630		EC50 (P. falciparum 3D7; [1]): 2500 nM
Cc1cc(Nc2ccc(C(F)(F)F)c(C(F)(F)F)c2)n2ncnc2n1	540		EC50 (P. falciparum 3D7; [1]): 2300 nM
Cc1cc(Nc2ccc(S(F)(F)(F)(F)F)cc2)n2nc(C)nc2n1	510	420	
Cc1cc(Nc2ccc(Cl)c(F)c2)n2nc(C(F)(F)F)nc2n1	520	250	
Cc1ccc(Nc2c3c(nc4ncnn24)CCC3)cc1F			EC50 (P. falciparum 3D7; [1]): 8300 nM
FC(F)(F)c1ccc(Nc2cc(C(F)(F)F)nc3ncnn23)cc1	1700	> 10000	
Cc1cc(NC2CCc3cc(Cl)ccc3C2)n2ncnc2n1 (centres unmarked)	670	10000	
Cc1cc(NC2CCc3ccccc3C2)n2nc(C(F)(F)F)nc2n1 (centres unmarked)	1200		
Cc1cc(Nc2ccc(C(F)(F)F)c(F)c2)n2nc(C(C)(F)F)nc2n1	35	9.3	
Cc1cc(Nc2cc(F)c(C(F)(F)F)c(F)c2)n2nc(C(C)(F)F)nc2n1	20	30	
COc1nc2nc(C)cc(Nc3ccc(S(F)(F)(F)(F)F)cc3)n2n1	42	64	
Cc1cc(Nc2ccc(C(F)(F)F)cc2)n2nc(C(C)C)nc2n1	110		EC50 (P. falciparum 3D7; [1]): 98 nM
CCC(F)(F)c1nc2nc(C)cc(Nc3ccc(C(F)(F)F)cc3)n2n1	190		EC50 (P. falciparum 3D7; [1]): 45 nM
Cc1cc(Nc2ccc(C(F)(F)F)cc2)n2nc(C3CC3)nc2n1	140		EC50 (P. falciparum 3D7; [1]): 150 nM

SMILES	IC50 (pfDHOD) [nM]	EC50 (P. falciparum 3D7; [2]) [nM]	further results
Cc1cc(Nc2ccc(S(F)(F)(F)(F)F)cc2)n2ncnc2n1	160	18000	
Cc1cc(Nc2cc(F)c(C(F)(F)F)c(F)c2)n2nc(C(F)(F)F)nc2n1	22	4.8	
CCc1nc2nc(C)cc(Nc3ccc(S(F)(F)(F)(F)F)cc3)n2n1		100	
Cc1cc(Nc2ccc(S(F)(F)(F)(F)F)cc2)n2nc(C(C)C)nc2n1			EC50 (P. falciparum 3D7; [1]): 420 nM
CCC(F)(F)c1nc2nc(C)cc(Nc3ccc(S(F)(F)(F)(F)F)cc3)n2n1			EC50 (P. falciparum 3D7; [1]): 550 nM
Cc1cc(Nc2ccc(S(F)(F)(F)(F)F)cc2)n2nc(C3CC3)nc2n1		500	
Cc1cc(Nc2ccc(Cl)cc2)n2nc(C(C)(F)F)nc2n1	28	33	
Cc1cc(Nc2ccc(CC(F)(F)F)cc2)n2ncnc2n1 [Example 25, 5-Methyl-N-(4-(2,2,2-trifluoroethyl)phenyl)-[1,2,4]triazolo[1,5-a]pyrimidin-7-amine]			melting point: 204 °C
Cc1cc(Nc2ccc(C(F)(F)F)c(F)c2)n2ccnc2n1 [Example 51, N-(3-fluoro-4-(trifluoromethyl)phenyl)-7-methylimidazo[1,2-a]pyrimidin-5-amine]			melting point: 302 to 304 °C
Cc1cc(Nc2ccc3c(c2)CCCC3)n2ccnc2n1 [Example 53, 7-Methyl-N-(5,6,7,8-tetrahydronaphthalen-2-yl)imidazo[1,2-a]pyrimidin-5-amine]			melting point: 264 to 266 °C
Cc1cc(Nc2ccc3c(c2)CCC3)n2ccnc2n1 [Example 54, N-(2,3-dihydro-1H-inden-5-yl)-7-methylimidazo[1,2-a]pyrimidin-5-amine]			melting point: 255 to 257 °C
Cc1cc(Nc2ccc(C(F)(F)F)cc2)n2nc(C(F)(F)F)nc2n1 [drawing 329]	35		EC50 (P. falciparum 3D7; [1]): 73 nM
Cc1cc(Nc2ccc(C(F)(F)F)c(F)c2)n2ccnc2n1 [drawing 333]	140	600	
Cc1cc(Nc2ccc3c(c2)CCCC3)n2ncnc2n1 [drawing 335]	100	300	
Cc1cc(Nc2ccc3c(c2)CCC3)n2ccnc2n1 [drawing 336]	130	600	
Cc1cc(Nc2ccc(CC(F)(F)F)cc2)n2ncnc2n1 [drawing 337]	2470		
Cc1cc(Nc2ccc(Cl)c(F)c2)n2ncnc2n1 [drawing 338]	510		EC50 (P. falciparum 3D7; [1]): 3500 nM
Cc1cc(NC2Cc3ccc(Br)cc3C2)n2ncnc2n1 (centres unmarked) [drawing 343]	990		EC50 (P. falciparum 3D7; [1]): 6600 nM
Cc1cc(Nc2ccc(S(F)(F)(F)(F)F)cc2)n2nc(C(F)(F)F)nc2n1 [drawing 344]	130		EC50 (P. falciparum 3D7; [1]): 140 nM
Cc1cc(Nc2ccc3c(c2)CCCC3)n2ncnc2n1 [drawing 353]	32		EC50 (P. falciparum 3D7; 3D7 strain): 200 nM
